For data set [1] the following is noted: phase II; patients with chronic obstructive pulmonary disease; cited from earlier work.
The test system of the next data set is TNFα. In words: Mouse model of LPS-induced acute pulmonary inflammation: TNFα level in BALF. Format: in vivo, BALB/c mouse. Particulars: 1.0 mg/kg intratracheal nebulized, 1 h before LPS; BALF 6 h after modeling; vs. model group. The method, then:
(§1) The study utilized a BALB/c mouse model of LPS-induced acute pulmonary inflammation to evaluate the inhibitory effect of the compound on pulmonary inflammation based on immune cell counts and TNFα cytokine levels in bronchoalveolar lavage fluid (BALF). The mice were divided into 6 groups, with 8 mice per group, including: a normal control group, a model control group, an RPL554 group (1.0 mg/kg), and low, medium, and high dose groups of compound A (0.3 mg/kg, 1.0 mg/kg, and 3.0 mg/kg). One hour after intratracheal administration of nebulized drugs, the mice were stimulated by nebulized LPS for modeling. Six hours after modeling, BALF was collected from the animals, and the total cells, the neutrophils, and the eosinophils in BALF were counted, along with the measurement of the pro-inflammatory cytokine TNFα level in BALF.

Another data set has as its system immune cells in BALF. In words: Mouse model of LPS-induced acute pulmonary inflammation: immune cell counts in BALF. Format: in vivo, BALB/c mouse. Particulars: 1.0 mg/kg intratracheal nebulized, 1 h before LPS; BALF 6 h after modeling; vs. model group. The method, then:
as §1

As for `COc1cc2c(cc1OC)-c1c/c(=N\c3c(C)cc(C)cc3C)n(CCNC(N)=O)c(=O)n1CC2` [RPL554, 9,10-dimethoxy-2-(2,4,6-trimethylphenylimino)-3-(N-carbamoyl-2-aminoethyl)-3,4,6,7-tetrahydro-2H-pyrimido[6,1-α]isoquinolin-4-one], in data set [1], the bronchodilation and symptoms entry was “significantly improve bronchodilation and symptoms”; the “tolerability, adverse events” value was “well tolerated”. Moreover, the “TNFα level in BALF” value in the data set with TNFα is “downward trend”. In addition, in the data set on immune cells in BALF, the “number of eosinophils in BALF” value is “significantly lower”, the “number of neutrophils in BALF” value is listed as “significantly lower” and the “number of total cells in BALF” value is on record as “significantly lower”.

Values taken from patent publication EP4609864A1, “PHARMACEUTICAL COMPOSITION CONTAINING ISOQUINOLINONE COMPOUND, AND PREPARATION METHOD THEREFOR” (Jiangsu Hengrui Pharmaceuticals Co., Ltd., priority 2022, dated 2024).
